Assay results as given in patent US12157730B2, “Heteroaryl derivative, method for producing same, and pharmaceutical composition comprising same as effective component” (VORONOI INC., priority 2019, dated 2024).

These molecules were tested against T1, Ba/F3 cell EGFR Exon20 ins NPH (Homo sapiens, UniProt P00533, INS773NPH) (assay: Ba/F3 cell proliferation suppression, EGFR Exon20 ins NPH). Details: GI50 class; Ba/F3 cell line with NPH inserted at Exon20 of EGFR; 72 hours.
T1 construct: expressed in transfected cells; host or cells: Ba/F3
Format: cell-based
In short: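 Cells (3000–5000/well) plated 24 h before compound, 12-point 3-fold dilutions at 0.3 nM to 50 um final; Ba/F3 lines grown with 5 ng/ml IL-3. Viability by CellTiter-Glo luminescence after 72 h, growth ratio vs control, GI50 from curves; triplicate.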

Ba/F3 (NPH) Activity | Molecule
A (GI50 < 50 nM) | C=CC(=O)Nc1cc(Nc2cc(N3OCC[C@@H]3c3ccc(F)cc3F)ncn2)c(OC)cc1N1C[C@@H]2C[C@H]1CN2CC [compound 354, N-(5-((6-((R)-3-(2,4-difluorophenyl)isoxazolidine-2-yl)pyrimidine-4-yl)amino)-2-((1S,4S)-5-ethyl-2,5-diazabicyclo[2.2.1]heptane-2-yl)-4-methoxyphenyl) acrylamide]
C (500 nM ≤ GI50 < 5000 nM) | C=CC(=O)Nc1cc(Nc2cc(N3OCC[C@H]3c3c(F)cccc3F)ncn2)c(OC)cc1N1CCC(N2C[C@@H](C)O[C@@H](C)C2)CC1 [compound 309, N-(5-((6-((S)-3-(2,6-difluorophenyl)isoxazolidine-2-yl)pyrimidine-4-yl)amino)-2-(4-((2S,6R)-2,6-dimethylmorpholino)piperidine-1-yl)-4-methoxyphenyl) acrylamide]
A (GI50 < 50 nM) | C=CC(=O)Nc1cc(Nc2cc(N3OCC[C@@H]3c3cccc(Cl)c3Cl)ncn2)c(OC)cc1N1C[C@@H]2C[C@H]1CN2CC [compound 524, N-(5-((6-((R)-3-(2,3-dichlorophenyl)isoxazolidine-2-yl)pyrimidine-4-yl)amino)-2-((1S,4S)-5-ethyl-2,5-diazabicyclo[2.2.1]heptane-2-yl)-4-methoxyphenyl) acrylamide]
A (GI50 < 50 nM) | C=CC(=O)Nc1cc(Nc2cc(N3OCC[C@@H]3c3ccccc3)ncn2)c(OC)cc1N1CCC(N2CC[C@H](N(C)C)C2)CC1 [Example 286, N-(2-(4-((S)-3-(dimethylamino)pyrolidine-1-yl)piperidine-1-yl)-4-methoxy-5-((6-((R)-3-phenylisoxazolidine-2-yl)pyrimidine-4-yl)amino)phenyl) acrylamide]
B (50 nM ≤ GI50 < 500 nM) | C=CC(=O)Nc1cc(Nc2cc(N3OCC[C@@H]3c3c(F)ccc(F)c3F)ncn2)c(OC)cc1N1CCN(CC)CC1 [compound 631, N-(2-(4-ethylpiperazine-1-yl)-4-methoxy-5-((6-((R)-3-(2,3,6-trifluorophenyl)isoxazolidine-2-yl)pyrimidine-4-yl)amino)phenyl)acrylamide]
A (GI50 < 50 nM) | C=CC(=O)Nc1cc(Nc2cc(N3OCC[C@@H]3c3ccc(F)c(Cl)c3F)ncn2)c(OC)cc1N1CCC(N2CCN(C3CC3)CC2)CC1 [Example 168]
A (GI50 < 50 nM) | C=CC(=O)Nc1cc(Nc2cc(N3OCC[C@@H]3c3cccc(Cl)c3Cl)ncn2)c(OC)cc1N1CCC(N(C)C)CC1 [compound 476, N-(5-((6-((R)-3-(2,3-dichlorophenyl)isoxazolidine-2-yl)pyrimidine-4-yl)amino)-2-(4-(dimethylamino)piperidine-1-yl)-4-methoxyphenyl) acrylamide]
B (50 nM ≤ GI50 < 500 nM) | C=CC(=O)Nc1cc(Nc2cc(N3OCC[C@@H]3c3ccc4ccccc4c3)ncn2)c(OC)cc1N1CCC(N2CCN(C)CC2)CC1 [compound 554, N-(4-methoxy-2-(4-(4-methylpiperazine-1-yl)piperidine-1-yl)-5-((6-((R)-3-(naphthalene-2-yl)isoxazolidine-2-yl)pyrimidine-4-yl)amino)phenyl)acrylamide]
A (GI50 < 50 nM) | C=CC(=O)Nc1cc(Nc2cc(N3OCC[C@@H]3c3cc(F)ccc3F)ncn2)c(OC)cc1N1CCC(N2CCN(C3CCCC3)CC2)CC1 [Example 100, N-(2-(4-(4-cyclopentylpiperazine-1-yl)piperidine-1-yl)-5-((6-((R)-3-(2,5-difluorophenyl)isoxazolidine-2-yl)pyrimidine-4-yl)amino)-4-methoxyphenyl) acrylamide]
A (GI50 < 50 nM) | C=CC(=O)Nc1cc(Nc2cc(N3OCC[C@@H]3c3ccc(Cl)cc3F)ncn2)c(OC)cc1N1CCC(N2CCOCC2)CC1 [compound 455, N-(5-((6-((R)-3-(4-chloro-2-fluorophenyl)isoxazolidine-2-yl)pyrimidine-4-yl)amino)-4-methoxy-2-(4-morpholinopiperidine-1-yl)phenyl)acrylamide]
A (GI50 < 50 nM) | C=CC(=O)Nc1cc(Nc2cc(N3OCC[C@@H]3c3ccc(F)cc3F)ncn2)c(OC)cc1N(C)CCN(C)C [compound 350, N-(5-((6-((R)-3-(2,4-difluorophenyl)isoxazolidine-2-yl)pyrimidine-4-yl)amino)-2-((2-(dimethylamino)ethyl)(methyl)amino)-4-methoxyphenyl) acrylamide]
A (GI50 < 50 nM) | C=CC(=O)Nc1cc(Nc2cc(N3OCC[C@@H]3c3cccc(F)c3Cl)ncn2)c(OC)cc1N(C)CCN(C)C [compound 551, N-(5-((6-((R)-3-(2-chloro-3-fluorophenyl)isoxazolidine-2-yl)pyrimidine-4-yl)amino)-2-((2-(dimethylamino)ethyl)(methyl)amino)-4-methoxyphenyl) acrylamide]
A (GI50 < 50 nM) | C=CC(=O)Nc1cc(Nc2cc(N3OCC[C@@H]3Cc3ccccc3)ncn2)c(OC)cc1N(C)CCN(C)C [compound 947, N-(5-((6-((S)-3-benzylisoxazolidine-2-yl)pyrimidine-4-yl)amino)-2-((2-(dimethylamino)ethyl)(methyl)amino)-4-methoxyphenyl) acrylamide]
A (GI50 < 50 nM) | C=CC(=O)Nc1cc(Nc2cc(N3OCC[C@@H]3c3ccc(F)cc3F)ncn2)c(OC)cc1N1CCC(N2C[C@H]3C[C@@H]2CN3CC)CC1 [compound 425, N-(5-((6-((R)-3-(2,4-difluorophenyl)isoxazolidine-2-yl)pyrimidine-4-yl)amino)-2-(4-((1R,4R)-5-ethyl-2,5-diazabicyclo [2.2.1]heptane-2-yl)piperidine-1-yl)-4-methoxyphenyl) acrylamide]
A (GI50 < 50 nM) | C=CC(=O)Nc1cc(Nc2cc(N3OCC[C@@H]3c3ccc(F)c(Cl)c3F)ncn2)c(OC)cc1N1CCC(N2CCOCC2)CC1 [compound 606, N-(5-((6-((R)-3-(3-chloro-2,4-difluorophenyl)isoxazolidine-2-yl)pyrimidine-4-yl)amino)-4-methoxy-2-(4-morpholinopiperidine-1-yl)phenyl)acrylamide]
A (GI50 < 50 nM) | C=CC(=O)Nc1cc(Nc2cc(N3OCC[C@@H]3c3ccc(F)cc3F)ncn2)c(OC)cc1N1C[C@H]2C[C@@H]1CO2 [compound 353, N-(2-((1R,4R)-2-oxa-5-azabicyclo[2.2.1]heptane-5-yl)-5-((6-((R)-3-(2,4-difluorophenyl)isoxazolidine-2-yl)pyrimidine-4-yl)amino)-4-methoxyphenyl) acrylamide]
A (GI50 < 50 nM) | C=CC(=O)Nc1cc(Nc2cc(N3OCC[C@@H]3c3cccc(F)c3Cl)ncn2)c(OC)cc1N1CCC(N2C[C@H]3C[C@@H]2CO3)CC1 [compound 634, N-(2-(4-((1R,4R)-2-oxa-5-azabicyclo [2.2.1]heptane-5-yl)piperidine-1-yl)-5-((6-((R)-3-(2-chloro-3-fluorophenyl)isoxazolidine-2-yl)pyrimidine-4-yl)amino)-4-methoxyphenyl) acrylamide]
A (GI50 < 50 nM) | C=CC(=O)Nc1cc(Nc2cc(N3OCC[C@@H]3c3cccc(Cl)c3Cl)ncn2)c(OC)cc1N1CCN(C(C)C)CC1 [compound 475, N-(5-((6-((R)-3-(2,3-dichlorophenyl)isoxazolidine-2-yl)pyrimidine-4-yl)amino)-2-(4-isopropylpiperazine-1-yl)-4-methoxyphenyl) acrylamide]
A (GI50 < 50 nM) | C=CC(=O)Nc1cc(Nc2cc(N3OCC[C@@H]3c3ccc(F)c(Cl)c3)ncn2)c(OC)cc1N1CCC(N2CCN(CC3CC3)CC2)CC1 [Example 94, N-(5-((6-((R)-3-(3-chloro-4-fluorophenyl)isoxazolidine-2-yl)pyrimidine-4-yl)amino)-2-(4-(4-(cyclopropylmethyl)piperazine-1-yl)piperidine-1-yl)-4-methoxyphenyl) acrylamide]
A (GI50 < 50 nM) | C=CC(=O)Nc1cc(Nc2cc(N3OCC[C@@H]3c3cccc(Cl)c3Cl)ncn2)c(OC)cc1N1CCC(N2CCOCC2)CC1 [compound 521, N-(5-((6-((R)-3-(2,3-dichlorophenyl)isoxazolidine-2-yl)pyrimidine-4-yl)amino)-4-methoxy-2-(4-morpholinopiperidine-1-yl)phenyl)acrylamide]
A (GI50 < 50 nM) | C=CC(=O)Nc1cc(Nc2cc(N3OCC[C@@H]3c3ccc(Cl)cc3F)ncn2)c(OC)cc1N1CC[C@@H](N2CCOCC2)C1 [compound 406, N-(5-((6-((R)-3-(4-chloro-2-fluorophenyl)isoxazolidine-2-yl)pyrimidine-4-yl)amino)-4-methoxy-2-((R)-3-morpholinopyrolidine-1-yl)phenyl)acrylamide]
A (GI50 < 50 nM) | C=CC(=O)Nc1cc(Nc2cc(N3OCC[C@@H]3Cc3ccccc3)ncn2)c(OC)cc1N1CCN(C2CCCC2)CC1 [compound 972, N-(5-((6-((S)-3-benzylisoxazolidine-2-yl)pyrimidine-4-yl)amino)-2-(4-cyclopentylpiperazine-1-yl)-4-methoxyphenyl) acrylamide]
B (50 nM ≤ GI50 < 500 nM) | C=CC(=O)Nc1cc(Nc2cc(N3OCC[C@H]3Cc3cccnc3)ncn2)c(OC)cc1N1CCC(N2C[C@@H]3C[C@H]2CO3)CC1 [compound 989, N-(2-(4-((1S,4S)-2-oxa-5-azabicyclo [2.2.1]heptane-5-yl)piperidine-1-yl)-4-methoxy-5-((6-((R)-3-(pyridine-3-ylmethyl)isoxazolidine-2-yl)pyrimidine-4-yl)amino)phenyl)acrylamide]

Molecule | Ba/F3 (NPH) Activity
N-(2-(4-(4- (cyclopropylmethyl) piperazine-1-yl) piperidine-1-yl)-5-((6- ((S)-3-(2,6)- difluorophenyl) isoxazolidine-2-yl) pyrimidine-4-yl)amino)- 4-methoxyphenyl) acrylamide [Example 95] | C (500 nM ≤ GI50 < 5000 nM)
